Molecules are shown by their SMILES.

Assay [1] deals with Chymotrypsinogen A (Bos taurus) (UniProt P00766). The experiment in a line: Inhibitory activity using serine protease, alpha-chymotrypsin with Succ-Ala-Ala-Pro-Phe-AMC as substrate. The percent inhibition at 10 uM concentration, was reported.
In assay [2] the target is Prothrombin (Homo sapiens) (UniProt P00734). The experiment in a line: Inhibitory activity using serine protease, thrombin with Cbz-Phe-Val-Arg-AMC as substrate. The percent inhibition at 10 uM concentration, was reported.
Assay [3] addresses T1, Calpain-1 catalytic subunit (Homo sapiens, UniProt P07384).
T1 sequence (P07384 whole entry): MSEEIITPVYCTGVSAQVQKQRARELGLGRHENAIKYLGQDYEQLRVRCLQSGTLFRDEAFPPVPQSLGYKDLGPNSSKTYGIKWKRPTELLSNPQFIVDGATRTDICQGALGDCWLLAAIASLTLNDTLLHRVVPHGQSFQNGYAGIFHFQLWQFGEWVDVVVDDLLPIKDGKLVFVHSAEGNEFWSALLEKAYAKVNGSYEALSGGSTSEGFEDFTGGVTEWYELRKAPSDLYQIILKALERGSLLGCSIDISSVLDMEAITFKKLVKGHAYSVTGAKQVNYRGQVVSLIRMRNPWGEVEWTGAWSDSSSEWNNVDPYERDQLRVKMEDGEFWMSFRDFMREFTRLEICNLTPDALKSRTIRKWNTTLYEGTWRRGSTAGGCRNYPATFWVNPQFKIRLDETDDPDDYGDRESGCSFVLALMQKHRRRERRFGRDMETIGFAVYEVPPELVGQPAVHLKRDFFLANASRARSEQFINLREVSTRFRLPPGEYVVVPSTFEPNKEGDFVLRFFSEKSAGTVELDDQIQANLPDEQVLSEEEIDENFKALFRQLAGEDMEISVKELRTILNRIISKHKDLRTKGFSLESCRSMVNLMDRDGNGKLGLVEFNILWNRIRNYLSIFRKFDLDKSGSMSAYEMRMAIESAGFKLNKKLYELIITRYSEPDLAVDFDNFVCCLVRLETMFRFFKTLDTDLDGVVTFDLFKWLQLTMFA
The experiment in a line: Inhibitory activity using recombinant human Calpain 1 with Suc-Leu-Tyr-MNA as substrate.

The target of the next assay is Cathepsin B (Homo sapiens, UniProt P07858). Kind of assay: Inhibitory activity using cysteine protease, Cathepsin B with Cbz-Phe-Arg-AMC as substrate.

Usually inhibition stands for the change of the read-out against control, counted positive when it falls. High values mean a strong effect, low ones a weak effect. In the case of `CC(C)C[C@@H](CCS(=O)(=O)c1ccc2ccccc2c1)C(=O)N[C@H](C=O)CC(C)C`, the inhibition in assay [1] turned out to be 12%; in assay [2], 2%.

One may read the IC50 as the concentration that inhibits the measured activity by half. Regarding `CC(C)C[C@H](CCSc1ccc2ccccc2c1)C(=O)N[C@H](C=O)CC(C)C`, the results for the inhibition in assay [1] and in assay [2] were 11% and 5%, respectively. Besides, the values for the IC50 (in assay [3]; against Cathepsin B) were 75 nM and 60 nM, respectively.

On to `CC(C)C[C@H](CC[S+]([O-])c1ccc2ccccc2c1)C(=O)N[C@H](C=O)CC(C)C` (some centres not stated), for which the values for the inhibition in assay [1] and in assay [2] were 18% and 2%, respectively. Also, the IC50 came out at 30 nM in assay [3] and 60 nM at Cathepsin B.

Take `CC(C)C[C@H](CCS(=O)(=O)c1ccc2ccccc2c1)C(=O)N[C@H](C=O)CC(C)C`: the inhibition in assay [1] was found to be 11%; in assay [2] it was 1%.

(Values after ChEMBL document CHEMBL1129824, “Nonpeptidic inhibitors of recombinant human calpain I” (Bioorg Med Chem Lett, 1997).)
